Square brackets hold non-standard residues; d marks the D form. Ends that are not written are not given here.
Key:
[1] = tested on: IMQ-induced psoriasis in BALB/c mice; experiment: Imiquimod-induced psoriasis in mice, ear histopathology; format: in vivo, mouse; settings: Prednisolone 10 mg/kg PO daily; for inflammation of the ear (average histopathology grade) vs vehicle-IMQ group: statistically significant
Experimental: Female BALB/cAnNCrl mice (Charles River, age 8 to 10 weeks at study start) have been assigned to the following groups (treatment schedule):
In this experiment, two positive controls have been utilized. Firstly, Prednisolone at 10 mg/kg (vehicle: 1% Hydroxyethylcellulose, 0.25% Polysorbate 80, and 0.05% Antifoam in purified water) has been dosed daily and orally (group “Prednisolone”). Secondly, Dexamethasone has been administered at 0.5 mg/kg (vehicle: sterile 0.9% NaCl) on days 1, 4 and 7 via intravenous route.
On day 8, animals have been sacrificed and the tissue (ear) has been fixed in 10% neutral buffered formalin. For histopathology hematoxylin-and-eosin-stained sections (cross cut) have been prepared and microscopic evaluation on the collected tissues from all animals has been performed. Methods and end-points for histopathology were similarly described in the van der Fits (2009) paper in that inflammation, epidermal hyperplasia, epidermal hyperkeratosis (rather than parakeratosis) were observed and recorded for severity grade, whereby the respective methodology from Van der Fits et al. (The Journal of Immunology 2009, 182, P. 5836-5845) is hereby incorporated by reference. Histopathology grading scores were excluded for either skin or ear in animals with secondary inflammatory processes (full thickness epidermal ulcers). Scores were averaged by group and standard deviation and statistical significance were calculated. […] Formalin-fixed, paraffin embedded skin from the dorsal surface of the mouse (BALB/c) was stained with hematoxylin and eosin (H&E) stain and assessed microscopically. An important difference from the above reference and to describe in more detail the observations of the present study: Hyperkeratosis can be defined specifically as orthokeratotic (no retained nuclei) or parakeratotic (retained nuclei). Either can occur normally in various anatomical locations and depending on species; however, both conditions are well defined in particular disease states. The van der Fits paper describes their Imiquimod (IMQ)-induced psoriasis model as causing parakeratotic hyperkeratosis similar to what is seen in the human condition, and that was a defined end-point for this study. However, the Danilenko et al. (Veterinary Pathology 2008 45:563) has shown that many rodent psoriasis models have orthokeratotic hyperkeratosis. […] The more general term ‘hyperkeratosis’ was used for grading end-points and describe in the text what type was seen (primarily orthokeratotic).
1=MI=minimal 2=SL=slight 3=M0=moderate 4=MA=marked 5=SE=severe

[2] = tested on: established type II collagen arthritis in rats; settings: Dex 0.05 mg/kg IV QD
[3] = tested on: endotoxins-induced uveitis albino rat model; experiment: Endotoxins-induced uveitis (EIU), single intravenous injection, clinical scoring 24 h after LPS; format: in vivo; parameters: key to EIU clinical score, median: clinical score per eye, 0 to 4 scale; settings: 20 μg/eye sub-conjunctival, 24 hours after LPS
Experimental: The aim of this study was to determine the effects of single intravenous injections of SEQ ID NO: 172 (0.015, 0.18, and 1.80 mg/kg) on the inflammatory response in an endotoxins-induced uveitis albino rat model and to compare these affects to those obtained with prior art JNK inhibitor of SEQ ID NO: 197 (2 mg/kg). As a further control served phosphate sodic dexamethasone.
Sixty (60) male Lewis rats were randomly divided into six (6) groups of ten (10) animals each. EIU was induced by footpad injection of lipopolysaccharide (LPS, 1 mg/kg). NaCl (0.9%), SEQ ID NO: 197 at 2 mg/kg and SEQ ID NO: 172 at three concentrations (1.80 mg/kg, 0.18 mg/kg and 0.015 mg/kg) were administered by intravenous injection. Phosphate sodic dexamethasone (20 μg/eye) was administered by sub-conjunctival injection in both eyes. 24 hours after LPS injection, inflammatory response was evaluated by clinical scoring.
The intensity of clinical ocular inflammation was scored on a scale from 0 to 4 for each eye: […]

Hela cells = experiment: Internalization of TAT derived transporters, 24 hours, fluorescence of cell extracts (FIG. 6); format: cell-based; settings: Y in position 2
Experimental: The transporter sequences analyzed correspond to SEQ ID NOs: 52-94 plus SEQ ID NOs: 45, 47, 46, 43 and 99 (FIG. 6a) and SEQ ID NOs: 100-147 (FIG. 6b). […] Hela cells were incubated 24 hours in 96 well plate with […] of the respective transporters. The cells were then washed twice with an acidic buffer (0.2M Glycin, 0.15M NaCl, pH 3.0) and twice with PBS. Cells were broken by the addition of RIPA lysis buffer. The relative amount of internalized peptide was then determined by reading the fluorescence intensity (Fusion Alpha plate reader; PerkinElmer) of each extract followed by background subtraction.
Hela cells were incubated 24 hours in 96 well plate with […] of the r3-L-TAT-derived transporters. The cells were then washed twice with an acidic buffer (0.2M Glycin, 0.15M NaCl, pH 3.0) and twice with PBS. Cells were broken by the addition of RIPA lysis buffer. The relative amount of internalized peptide was then determined by reading the fluorescence intensity (Fusion Alpha plate reader; PerkinElmer) of each extract followed by background subtraction

C[C@]12C=CC(=O)C=C1CC[C@@H]1[C@@H]2[C@@H](O)C[C@@]2(C)[C@H]1CC[C@]2(O)C(=O)CO [Prednisolone, reference compound]
epidermal hyperkeratosis of the ear, average grades vs vehicle-IMQ group [1]: minimally decreased average grades | epidermal hyperplasia of the ear vs vehicle-IMQ group ([1]; not statistically significant): below that of the vehicle-IMQ dose group | inflammation of the ear (average histopathology grade) vs vehicle-IMQ group [1]: decreased inflammation of the ear | inflammation of the ear (average histopathology grade) vs vehicle-IMQ group ([1]; listed as prednisolone): significant differences from the vehicle control group

C[C@@H]1C[C@H]2[C@@H]3CCC4=CC(=O)C=C[C@]4(C)[C@@]3(F)[C@@H](O)C[C@]2(C)[C@@]1(O)C(=O)CO [dexamethasone, reference compound]
spleen weights relative to body weight vs disease controls [2]: significantly (p<0.05 by ANOVA) reduced | thymus weights relative to body weight vs disease controls [2]: significantly (p<0.05 by ANOVA) reduced | EIU clinical score, mean±SEM [3]: 0.8±0.2 | EIU clinical score, median [3]: 0.5 | reduction of clinical scores vs vehicle [3]: 79%

rYKRrQRRr ([dR]YKR[dR]QRR[dR]) [SEQ ID NO: 142]
transporter activity and kinetics of transport (position scan) (Hela cells): highest transporter activity

— patent publication US20160115200A1, “New Use for JNK Inhibitor Molecules for Treatment of Various Diseases” (XIGEN INFLAMMATION LTD., priority 2013, published 2016)
